The test system of this assay is CEM cells HIV-1 protection, formazan growth assay. As to the kind of experiment: NCI AIDS Antiviral Assay. Particulars: for IC50: measured here: growth of uninfected CEM cells. The procedure, abridged: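 Human CEM cells, uninfected and HIV-1-infected, exposed to five drug concentrations; growth measured by soluble formazan assay and scored as percent protection from infection, with protecting compounds retested.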

SMILES strings stand for the structures. Several values for one entry are separate records, joined by “and”; a condition that tells them apart may be missing. Equal entries are not always repeated. Activity calls are given as the source filed them.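 Rule for the calls: active = compounds giving half or more protection of infected cells from virus-caused growth loss, again on retest; inactive = the rest.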

In the case of `N#Cc1cccc2c1Sc1ccccc1N2`, the EC50 (usually the midpoint of the concentration-response curve) was greater than 200 µM and the IC50 (as a rule, the point on the concentration scale where inhibition reaches its midpoint) stood at 12 µM.
For `COC(=O)c1[nH]cnc1O`, the EC50 is greater than 200 µM and the 50% inhibitory concentration (IC50) is greater than 200 µM.
`O=[N+]([O-])c1ccc(Cc2nc3ccccc3s2)cc1`: the EC50 was greater than 132 µM and the IC50 was determined as 38 µM.
As for `CCOC(=O)c1cc(C2(O)CCN(Cc3ccccc3)C2=O)c(-c2cc(C)no2)[nH]1` (stereo not drawn), the EC50 is greater than 200 µM and the IC50 is 38.9 µM.
`COc1ccc(C2SC(N)=Nc3c2c(C)nn3C(=O)c2ccncc2)cc1` (stereo not drawn): the EC50 is greater than 200 µM and the IC50 was 110 µM.
Take `CC1(C)O[C@]2(C)CC[C@@H]1[C@@H](O)[C@@H]2N1CCCCC1`: the EC50 was greater than 380 µM and the IC50 is greater than 380 µM.
`CCCC(=O)Oc1ccc2c(C)cc(=O)oc2c1`: the EC50 is greater than 200 µM and the IC50 is greater than 200 µM.
Turning to `CN1OC2OC(=O)OC2[C@H]1[C@H]1O[C@H](c2ccccc2)OC1(C)c1cc(OC(=O)c2ccccc2)ccc1OC(=O)c1ccccc1` (stereo partly drawn), the EC50 is greater than 2.34 µM and the IC50 was greater than 2.34 µM.
In the case of `CC1=C(C(=O)CC(=O)C(=O)Nc2ccccc2)Sc2ccccc2N1`, the EC50 is greater than 178 µM and the half-maximal inhibitory concentration (IC50) was greater than 178 µM.
Regarding `COC(=O)C1Cc2c([nH]c3ccccc23)-c2[nH]c3ccccc3c2CC(NC(C)=O)C(=O)NCC(=O)N1` (stereo not drawn), the EC50 was greater than 200 µM and the IC50 is greater than 200 µM.
For `O=C(O)CCCSC(=O)Nc1ccc(N=Nc2ccccc2)cc1`, the outcome was inactive.
For the compound `Cc1ccc(/C=N/Nc2ncccn2)s1`, the EC50 was greater than 200 µM and the IC50 is greater than 200 µM.
With `N#Cc1sc2nc3ccccc3n2c1N`, the EC50 was greater than 200 µM and the concentration for half-maximal inhibition (IC50) was found to be 28.8 µM.
`COc1ccc2c3c(coc13)C(CCC(=O)O)CC2` (stereo not drawn): the result was inactive.
`N#C/C(=C\c1ccccc1Br)C(=O)c1ccccc1`: the EC50 was greater than 32.4 µM and the IC50 was greater than 32.4 µM.
Consider `CNC(=S)N1CCN(C(C)=O)C1=S`, for which the EC50 was greater than 200 µM and the IC50 was greater than 200 µM.
With `Cc1cc(-c2ccc(N=Nc3c(N)c(S(=O)(=O)O)cc4cc(S(=O)(=O)O)ccc34)c(C)c2)ccc1N=Nc1c(N)ccc2cc(S(=O)(=O)O)ccc12`, the result was active.
As for `Cc1cc2c(c(C=Nc3ccc([N+](=O)[O-])cc3)c1)OC1(C=C2)Oc2ccccc2C(=O)N1C` (stereo not drawn), the EC50 is greater than 200 µM and the IC50 amounted to 22.9 µM.
Take `CCC1c2cc3n(c(=O)c2COC1O)Cc1c-3nc2ccccc2c1Cl` (stereo not drawn): the EC50 was greater than 10 µM and the IC50 amounted to 6.31 µM.
With `C/C=N/NC1=Nc2ccc(Cl)cc2C(c2ccccc2)=NN1C`, the EC50 is greater than 200 µM and the IC50 is 33.9 µM.
As to `Cc1cc(N(C)C)ccc1N=Nc1ccc2ncccc2c1`, the outcome was inactive.
Regarding `O=C(O)c1ccc2c(n1)-c1nc3nc4c(cc3cc1CC2)CCc1ccc(C(=O)O)nc1-4`, the EC50 was greater than 200 µM and the IC50 stood at 21.9 µM.
On to `O=[N+]([O-])c1ccc(Cl)cc1C=NC12CC3CC(CC(C3)C1)C2`, for which the EC50 is greater than 200 µM and the IC50 came out at 11.5 µM.
Regarding `C=C(COCO)C(C)=O`, the EC50 is greater than 200 µM and the IC50 was 1.45 µM.
Regarding `COc1ccc2oc(OC)c(CC=C(C)C)c(=O)c2c1C`, the EC50 is greater than 200 µM and the IC50 came to 141 µM.
In the case of `N#CC1(C#N)C(C#N)(C#N)C12CCCCCC2`, the outcome was inactive.
As for `CCCc1cc(=O)oc2c3c(c4c(c12)OC(C)(C)C=C4)O[C@@H](C)[C@H](C)[C@@H]3O[Si](C)(C)C(C)(C)C`, the EC50 was greater than 200 µM and the IC50 is greater than 200 µM.
With `COC1N(C2CC(F)C(CO)O2)C(=O)NC(=O)C1(C)Cl` (stereo not drawn), the EC50 was 14.5 µM and 25.1 µM; the IC50 came out at 794 µM.
Consider `Cc1ccc(NC(=O)C(=O)CC(=O)c2ccccc2)cc1C`, for which the EC50 is greater than 4.9 µM and the IC50 was greater than 4.9 µM.
Regarding `C[N+](C)(C)CC1CCCC(C[N+](C)(C)C)C1=O` (stereo not drawn), the outcome was inactive.
With `O=C(CO[N+](=O)[O-])OCC(=O)c1ccccc1`, the outcome was inactive.
With `S=C1CC(c2ccc(Sc3ccccc3)cc2)=Nc2ccccc2N1`, the EC50 was greater than 200 µM and the IC50 was determined as 75.9 µM.
Take `COC(=O)C1(Cc2cccc(Cl)c2)CCCCCCN1C(=O)c1ccccc1` (stereo not drawn): the EC50 was greater than 112 µM and the IC50 is 20.4 µM.
As to `CCN1CCC(O)(/C=C/c2ccc(C)cc2)C(C(=O)/C=C/c2ccc(C)cc2)C1` (stereo not drawn), the EC50 was greater than 117 µM and the IC50 is 2.57 µM.
As for `COc1cccc(C2NC(=O)c3c(n[nH]c3N)S2)c1O` (stereo not drawn), the EC50 was greater than 200 µM and the IC50 is greater than 200 µM.
On to `CCn1c(SCC(=O)NNC(=S)Nc2ccc(Cl)cc2)nc2ccccc2c1=O`, for which the EC50 was greater than 200 µM and the IC50 was determined as 95.5 µM.
Regarding `Brc1ccccc1C=NC12CC3CC(CC(C3)C1)C2`, the EC50 was greater than 22.9 µM and the 50% inhibitory concentration (IC50) is greater than 22.9 µM.
As to `O=c1[nH]nc(Cc2ccccc2)n1/N=C\CC/C=N\n1c(Cc2ccccc2)n[nH]c1=O`, the EC50 was greater than 200 µM and the IC50 stood at 37.2 µM.
Turning to `COc1ccc2occ(CCC(=O)O)c2c1`, the result was inactive.
As to `CC12CCC3(OCCO3)C(OC(=O)c3ccccc3)=C1CCC21OCCO1` (stereo not drawn), the result was inactive.
As for `O=S1c2ccccc2N=C(c2cccc3ccccc23)CC1c1cccc2ccccc12` (stereo not drawn), the EC50 is greater than 60.3 µM and the IC50 was greater than 60.3 µM.
Take `NC(=O)CN(CC(N)=O)C(N)=O`: the EC50 is greater than 724 µM and the IC50 was greater than 724 µM.
Take `O=C1CC2(CCC(O)(c3ccccc3)C(C(=O)c3ccccc3)C2)C(=O)c2ccccc2N1` (stereo not drawn): the EC50 was greater than 200 µM and the IC50 was greater than 200 µM.
Consider `COc1ccc(-c2c[se]c(=S)s2)cc1`, for which the EC50 was greater than 18.2 µM and the IC50 is greater than 18.2 µM.
As for `CC(=O)O[C@H]1CC[C@@]2(C)C(=CC[C@@H]3C2CC[C@]2(C)Nc4oncc4CC32)C1` (stereo partly drawn), the outcome was inactive.
For `Cc1ccc(C=Nc2ccc(SSc3ccc(N=Cc4ccc(C)cc4)cc3)cc2)cc1`, the EC50 was greater than 200 µM and the 50% inhibitory concentration (IC50) is 26.3 µM.
`Nc1n[n+]([O-])c2cnccc2[n+]1[O-]`: the EC50 was greater than 200 µM and the concentration for half-maximal inhibition (IC50) worked out at 70.8 µM.
With `C/C=C/C(=O)[O-].C/C=C/C(=O)[O-].N.N.N.N.[Co+3].[O-][Cl+3]([O-])([O-])[O-]`, the result was inactive.
Same read-out and setting: the result for `Cc1ccc(C2(c3ccc(F)cc3)OC(=O)c3ccccc32)c(O)c1` (stereo not drawn) reads “inactive”.
The same measure, in the same setting: the result for `O=S(O)CCCCCSSc1ccc(Cl)cc1` reads “inactive”.
With `CCCC1C2C(=O)N(c3ccccc3)C(=O)C2ON1c1ccccc1` (stereo not drawn), the EC50 was greater than 40.7 µM and the IC50 is greater than 40.7 µM.
In the case of `O=C1NC2(CCCCC2)C2CCCCC(O)C12` (stereo not drawn), the outcome was inactive.
On to `CCOC1OC(CO[Si](C)(C)C(C)(C)C)C(O)CC1n1ccc(=O)[nH]c1=O` (stereo not drawn), for which the EC50 is greater than 200 µM and the 50% inhibitory concentration (IC50) came to 31.6 µM.
On to `O=C(NC(=O)c1cn(CCNCCO)c(=O)[nH]c1=O)OCc1ccccc1`, for which the outcome was inactive.
